The record followed here is patent US10654834B2 (Venenum Biodesign, LLC, priority 2016, dated 2020).

Structures can show the parent of a compound that is named as a salt. A value given as a limit tells only on which side of the number the result lay.

The target in one experiment is T1, human TGR5 receptor (Homo sapiens, UniProt Q8TDU6).
T1 construct: host or cells: CHO-K1 (hTGR5-CHO)
T1 sequence (Q8TDU6 1-330): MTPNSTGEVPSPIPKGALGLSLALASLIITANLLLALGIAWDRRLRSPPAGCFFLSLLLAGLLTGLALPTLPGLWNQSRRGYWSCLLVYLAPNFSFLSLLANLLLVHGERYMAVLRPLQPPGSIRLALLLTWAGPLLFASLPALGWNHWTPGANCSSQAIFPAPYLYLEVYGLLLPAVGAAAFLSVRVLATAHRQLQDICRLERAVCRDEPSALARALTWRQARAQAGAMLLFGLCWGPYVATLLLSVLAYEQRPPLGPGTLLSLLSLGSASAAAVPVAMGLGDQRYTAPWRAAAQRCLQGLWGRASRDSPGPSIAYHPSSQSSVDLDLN
Briefly: Human TGR5 cAMP production assay (hTGR5-CHO cells, DiscoveRx cAMP XS+ kit). In kind it is cell-based. Conditions: luminescent cAMP assay, read-out: Human TGR5 Lum. cAMP Activity (EC50). The essentials: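 EC50 values come from luminescent enzyme-complementation cAMP detection, read after overnight incubation. Beforehand, hTGR5-expressing CHO-K1 cells with IBMX and anti-cAMP antibody were exposed 1 h at room temperature to serially diluted (half-log) compounds.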
Background: cAMP levels reflect the balance of adenylyl cyclase and phosphodiesterase activity.

The target of a further experiment is T2, mouse TGR5 receptor (Mus musculus, UniProt Q80SS6).
T2 construct: host or cells: HEK293-EBNA (293 c18, ATCC CRL10852)
T2 sequence (Q80SS6 1-329): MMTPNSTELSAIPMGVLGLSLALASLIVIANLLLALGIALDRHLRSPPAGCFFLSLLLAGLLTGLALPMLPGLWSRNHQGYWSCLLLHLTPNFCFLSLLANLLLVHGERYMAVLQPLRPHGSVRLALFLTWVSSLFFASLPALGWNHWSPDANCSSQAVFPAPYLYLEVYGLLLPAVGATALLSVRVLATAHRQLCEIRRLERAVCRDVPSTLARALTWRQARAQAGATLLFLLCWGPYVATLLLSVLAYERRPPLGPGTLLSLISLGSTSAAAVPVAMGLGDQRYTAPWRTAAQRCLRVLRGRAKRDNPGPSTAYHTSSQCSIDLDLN
Briefly: Mouse TGR5 HTRF cAMP production assay (HEK293-EBNA cells, Cisbio cAMP HiRange kit). In kind it is cell-based. Conditions: HEK293-EBNA cells overexpressing mouse TGR5, HTRF cAMP assay. The essentials:
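cAMP accumulation was read by competitive HTRF after 1 h room-temperature compound treatment, with a further 1 h conjugate incubation. Cells were mouse TGR5-overexpressing HEK293-EBNA in serum-free DMEM plus 500 μM IBMX. Compounds ran as 12-point half-log series in duplicate, and EC50 values were reported.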
For orientation: TR-FRET usually uses a lanthanide donor and a delayed reading to cut background.

The EC50 is the concentration at which the effect is half-maximal. `N#Cc1ccc(CCNC(=O)[C@@H]2CCCN2c2cc(N3CCC(CCNC(=O)NCCNC(=O)[C@@H](N)CS(=O)(=O)O)CC3)nc(C(F)(F)F)n2)cc1` [Compound 373, (R)-2-amino-3-((2-(3-(2-(1-(6-((S)-2-((4-cyanophenethyl)carbamoyl)pyrrolidin-1-yl)-2-(trifluoromethyl)pyrimidin-4-yl)piperidin-4-yl)ethyl)ureido)ethyl)amino)-3-oxopropane-1-sulfonic acid]: the half-maximal effective concentration (EC50) on human TGR5 receptor and at mouse TGR5 receptor was less than 100 nM in each case.
Consider `CC(C)(C)OC(=O)CCNc1c(NCCC2CCN(c3cc(N4CC[C@H]4C(=O)NCCc4ccc(C#N)cc4)nc(C(F)(F)F)n3)CC2)c(=O)c1=O` [Compound 300, (S)-tert-butyl 3-((2-((2-(1-(6-(2-((4-cyanophenethyl)carbamoyl)azetidin-1-yl)-2-(trifluoromethyl)pyrimidin-4-yl)piperidin-4-yl)ethyl)amino)-3,4-dioxocyclobut-1-en-1-yl)amino)propanoate], for which the values for the 50% effective concentration (EC50) on human TGR5 receptor and at mouse TGR5 receptor were 100 to 999 nM and less than 100 nM, respectively.
Taken in the same sequence, the figures for `O=C(O)C(=O)N1CCN(c2cc(N3CCC[C@@H](C(=O)NCCc4ccc(C(F)(F)F)cc4)C3)nc(C(F)(F)F)n2)CC1` [Compound 340, (R)-2-oxo-2-(4-(2-(trifluoromethyl)-6-(3-((4-(trifluoromethyl)phenethyl)-carbamoyl)piperidin-1-yl)pyrimidin-4-yl)piperazin-1-yl)acetic acid] were 100 to 999 nM and less than 100 nM.
Taken in the same sequence, the figures for `N#Cc1ccc(CCNC(=O)[C@@H]2CCCN2c2cc(-c3ccc(C(=O)O)s3)nc(C(F)(F)F)n2)cc1` [Compound 181, (S)-5-(6-(2-((4-cyanophenethyl)carbamoyl)pyrrolidin-1-yl)-2-(trifluoromethyl)pyrimidin-4-yl)thiophene-2-carboxylic acid] were 100 to 999 nM and less than 100 nM.
The corresponding values for `O=C(CS(=O)(=O)O)NCCC1CCN(c2cc(N3CC[C@H]3C(=O)NCCc3ccc(C(F)(F)F)cc3)nc(C(F)(F)F)n2)CC1` [Compound 279, (S)-2-oxo-2-((2-(1-(2-(trifluoromethyl)-6-(2-((4-(trifluoromethyl)phenethyl)carbamoyl)azetidin-1-yl)pyrimidin-4-yl)piperidin-4-yl)ethyl)amino)-ethanesulfonic acid] are less than 100 nM and less than 100 nM.
For the compound `O=C(CCCC1CCN(c2cc(N3CCC[C@H]3C(=O)NCCc3cccc(-c4ccncc4)c3)nc(C(F)(F)F)n2)CC1)NCS(=O)(=O)O` [Compound 354, (S)-(4-(1-(6-(2-((3-(pyridin-4-yl)phenethyl)carbamoyl)pyrrolidin-1-yl)-2-(trifluoromethyl)pyrimidin-4-yl)piperidin-4-yl)butanamido)methanesulfonic acid], the figures for the EC50 at human TGR5 receptor and on mouse TGR5 receptor were 1000 to 30000 nM and 100 to 999 nM, respectively.
The corresponding values for `Cc1nc(N2CCC(CO)CC2)cc(N2CCC[C@H]2C(=O)NCCc2ccc(C#N)cc2)n1` [Compound 36] are 100 to 999 nM and 1000 to 30000 nM.
Taken in the same sequence, the figures for `O=C(NCCc1ccc(C(F)(F)F)cc1)[C@@H]1CCCN(c2cc(N3CCN(C(=O)CO)CC3)nc(C(F)(F)F)n2)C1` [Compound 348, (R)-1-(6-(4-(2-hydroxyacetyl)piperazin-1-yl)-2-(trifluoromethyl)pyrimidin-4-yl)-N-(4-(trifluoromethyl)phenethyl)piperidine-3-carboxamide] were 100 to 999 nM and less than 100 nM.
The corresponding values for `N#Cc1ccc(CCNC(=O)[C@@H]2CCCN2c2cc(N3CCC(CCCC(=O)N4CCN(CC(=O)O)CC4)CC3)nc(C(F)(F)F)n2)cc1` [Compound 108, (S)-2-(4-(4-(1-(6-(2-((4-cyanophenethyl)carbamoyl)pyrrolidin-1-yl)-2-(trifluoromethyl)pyrimidin-4-yl)piperidin-4-yl)butanoyl)piperazin-1-yl)acetic acid] are less than 100 nM and less than 100 nM.
As for `COC(=O)c1ccc(S(=O)(=O)NCCOCCNC(=O)CCCC2CCN(c3cc(N4CC[C@H]4C(=O)NCCc4ccc(C#N)cc4)nc(C(F)(F)F)n3)CC2)cc1` [Compound 290, (S)-methyl 4-(N-(2-(2-(4-(1-(6-(2-((4-cyanophenethyl)carbamoyl)azetidin-1-yl)-2-(trifluoromethyl)pyrimidin-4-yl)piperidin-4-yl)butanamido)ethoxy)ethyl)-sulfamoyl)benzoate], the EC50 at human TGR5 receptor is 100 to 999 nM; at mouse TGR5 receptor it was less than 100 nM.
Consider `N#Cc1ccc(CCNC(=O)[C@@H]2CCCN2c2cc(N3CCC(CCN4C(=O)N[C@@H](CS(=O)(=O)O)C4=O)CC3)nc(C(F)(F)F)n2)cc1` [Compound 122, ((R)-1-(2-(1-(6-((S)-2-((4-cyanophenethyl)carbamoyl)pyrrolidin-1-yl)-2-(trifluoromethyl)pyrimidin-4-yl)piperidin-4-yl)ethyl)-2,5-dioxoimidazolidin-4-yl)methanesulfonic acid], for which the EC50 on human TGR5 receptor and on mouse TGR5 receptor was less than 100 nM each time.
For `COCCC1CCN(c2cc(N3CC[C@H]3C(=O)NCCc3ccc(C#N)cc3)nc(C(F)(F)F)n2)CC1` [Compound 225, (S)-N-(4-cyanophenethyl)-1-(6-(4-(2-methoxyethyl)piperidin-1-yl)-2-(trifluoromethyl)pyrimidin-4-yl)azetidine-2-carboxamide], the EC50 on human TGR5 receptor and at mouse TGR5 receptor was less than 100 nM each time.
As for `N#Cc1ccc(CCNC(=O)[C@@H]2CCCN2c2cc(-c3ccc(CCC(=O)O)cc3)cc(C(F)(F)F)n2)cc1` [Compound 205, (S)-3-(4-(2-(2-((4-cyanophenethyl)carbamoyl)pyrrolidin-1-yl)-6-(trifluoromethyl)pyridin-4-yl)phenyl)propanoic acid], the EC50 on human TGR5 receptor and on mouse TGR5 receptor was less than 100 nM each time.
Turning to `N#Cc1ccc(CCNC(=O)[C@@H]2CCCN(c3cc(N4CCN(CCOCCO)CC4)nc(C(F)(F)F)n3)C2)cc1` [Compound 314, (R)-N-(4-cyanophenethyl)-1-(6-(4-(2-(2-hydroxyethoxy)ethyl)piperazin-1-yl)-2-(trifluoromethyl)pyrimidin-4-yl)piperidine-3-carboxamide], the concentration for a half-maximal effect (EC50) at human TGR5 receptor was 100 to 999 nM; at mouse TGR5 receptor it was less than 100 nM.
Consider `NCCNC(=O)CCCC1CCN(c2cc(N3CCC[C@H]3C(=O)NCCc3ccc(C(F)(F)F)cc3)nc(C(F)(F)F)n2)CC1` [Compound 90, (S)-1-(6-(4-(4-((2-aminoethyl)amino)-4-oxobutyl)piperidin-1-yl)-2-(trifluoromethyl)pyrimidin-4-yl)-N-(4-(trifluoromethyl)phenethyl)pyrrolidine-2-carboxamide hydrochloride], for which the EC50 on human TGR5 receptor and on mouse TGR5 receptor was less than 100 nM each time.
With `N#Cc1ccc(CCNC(=O)[C@@H]2CCN2c2cc(N3CCC(CCCC(=O)NCCOCCNS(=O)(=O)c4ccc(C(=O)O)cc4)CC3)nc(C(F)(F)F)n2)cc1` [Compound 291, (S)-4-(N-(2-(2-(4-(1-(6-(2-((4-cyanophenethyl)carbamoyl)azetidin-1-yl)-2-(trifluoromethyl)pyrimidin-4-yl)piperidin-4-yl)butanamido)ethoxy)ethyl)sulfamoyl)-benzoic acid], the EC50 at human TGR5 receptor is 100 to 999 nM; at mouse TGR5 receptor it was less than 100 nM.
On to `N#Cc1ccc(CCNC(=O)[C@@H]2CCCN2c2cc(-c3ccc(COCC(=O)NCS(=O)(=O)O)cc3)cc(C(F)(F)F)n2)cc1` [Compound 209, (S)-(2-((4-(2-(2-((4-cyanophenethyl)carbamoyl)pyrrolidin-1-yl)-6-(trifluoromethyl)pyridin-4-yl)benzyl)oxy)acetamido)methanesulfonic acid], for which the EC50 at human TGR5 receptor and on mouse TGR5 receptor was less than 100 nM in each case.
On to `N#Cc1ccc(CCNC(=O)[C@@H]2CCCN2c2cc(N3CCN(CCO)CC3)nc(C(F)(F)F)n2)cc1` [Compound 31], for which the 50% effective concentration (EC50) at human TGR5 receptor was 100 to 999 nM; at mouse TGR5 receptor, less than 100 nM.
With `CN(C)CCN1CCN(c2cc(N3CCC[C@H]3C(=O)NCCc3ccc(C#N)cc3)nc(C(F)(F)F)n2)CC1` [Compound 30], the EC50 on human TGR5 receptor and on mouse TGR5 receptor was 100 to 999 nM in each case.
With `N#Cc1ccc(CCNC(=O)[C@@H]2CCCN2c2cc(-c3ccc(CCN)cc3)nc(C(F)(F)F)n2)cc1` [Compound 184, (S)-1-(6-(4-(2-aminoethyl)phenyl)-2-(trifluoromethyl)pyrimidin-4-yl)-N-(4-cyanophenethyl)pyrrolidine-2-carboxamide], the concentration for a half-maximal effect (EC50) at human TGR5 receptor and at mouse TGR5 receptor was 100 to 999 nM each time.
